Laboratory results reported in patent US20190248834A1, “ENDOMORPHIN-2, TETRAPEPTIDE DERIVATIVES THEREOF, AND USES THEREOF” (priority 2016, published 2019).
No end group written: not given here. *: point of attachment. NHNH2 = NN*

How the values were obtained:
lower back (lumbar) pain = assay: Example 85: analgesic effect on lower back pain, topical; type: in vivo, human
Protocol: A subject had lower back (lumbar) pain associated with sitting in a crouched position at a low work table for about 3 hours. Upon their sitting up straight, the pain became more pronounced and persisted as they walked around for 15-20 minutes.

[1] = tested on: osteoarthritis of the fingers and wrists; assay: Example 83: analgesic effect on osteoarthritic pain, topical; type: in vivo, human; settings: 0.8% (w/v) in WEP442, topical
Protocol: A subject had osteoarthritis of the fingers and wrists for about 10 years, with substantial worsening over the past several months. Symptoms included painful finger joints and wrists. The pain was much worsened by flexion, so that making a first was too painful to try. Moreover, complete flexion had not been possible because of actual physical limitations. Anatomical signs of their disorder, e.g., enlarged finger joints, were conspicuous in their case. After 36 hours of no topical or systemic use of any analgesic agent, pain in the fingers and wrists was again present and substantial, so much so that they were unable to slice vegetables with a knife.

[2] = tested on: trapezius muscle strain pain; assay: Example 81: analgesic effect on pain from trapezius muscle strain, topical; type: in vivo, human; settings: 0.7% (w/v) in propylene glycol: triethyl citrate : water (4:4:2)
Excerpt: A subject with persistent pain localized to a site medial to the upper right scapula (shoulder blade) topically applied to that site a composition containing 0.7% (w/v) of N-Ac-Tyr-Pro-Phe-Phe-NHCH3(SEQ ID NO: 24) in propylene glycol: triethyl citrate : water (4:4:2 ratio).

post-sunburn pain = assay: Example 86: analgesic effect on sunburn pain, topical; type: in vivo, human
Protocol: A subject, experienced post-sunburn pain at the frontal hairline of the scalp, an area not earlier covered by sunscreen lotion at time of sun exposure several days earlier. They vigorously rubbed the area later to remove lingering skin scales, which caused irritation and pain. […] Relief lasted for 4 hours. […] The condition was then resolved with the use of a hydrating skin cream.

[3] = tested on: psoriatic arthritis of finger joints; assay: Example 84: analgesic effect on pain from psoriatic arthritis, topical; type: in vivo, human; settings: 0.8% (w/v) in WEP442, topical
Excerpt: A subject […], had extensive plaque psoriasis and painful arthritis of the interphalangeal joints of both index fingers, left thumb and left 5th finger, which compromised their work performance as an esthetician. The subject topically applied a solution composition containing 0.8% (w/v) of N-Ac-Tyr-Pro-Phe-Phe-NHCH3 (SEQ ID NO: 24) in WEP442 to their painful fingers.

migraine = assay: Example 80: analgesic effect on pain and nausea from migraine headache, topical; type: in vivo, human; settings: 0.5% (w/v) in WEP442, topical at onset of symptoms
Excerpt: A subject with a history of recurrent attacks of migraine, was provided a solution composition containing 0.5% (w/v) of N-Pg-Tyr-Pro-Phe-Phe-NH2 (SEQ ID NO: 44) in WEP442 and a solution composition containing 0.5% (w/v) of N-Ac-Tyr-Pro-Phe-Phe-NHNH2 (SEQ ID NO: 31) in WEP442. […] Sensations of nausea that might have lingered went away after several minutes following a second topical application.

hangover headache = assay: Example 54: analgesic effect on hangover headache, topical; type: in vivo, human; settings: 1% (w/v) in WEP442, topical
Excerpt: A subject with a “splitting” headache the morning after heavy drinking at a party the night before, topically applied to the entire head and neck a composition containing 1% (w/v) of N-Ac-Tyr-Pro-Phe-Phe-NHNH2 (SEQ ID NO: 31) in WEP442. […] They then drove their car approximately 90 miles to their residence.

[4] = tested on: psoriatic arthritis pain, fingers and wrists; assay: Example 48: comparative analgesic efficacy, psoriatic arthritis pain of fingers and wrists, topical; type: in vivo, human; settings: 1% (w/v) in WEP442, topical
Excerpt: […] Treatment of the subject over the years included methotrexate and other antimetabolites, and in recent years drugs known as biologic medications. While these agents have provided intervals of relief, none has provided a lasting benefit. Over the past decade, painful arthritis developed in both wrists and in numerous joints of the fingers. Four related tetrapeptide derivatives, 1% (w/v) solution compositions in vehicle WEP442, one at a time, were topically applied to the fingers and wrists of both hands. […] Efficacy was rated by the subject as 4+. • (B) N-Ac-Tyr-Pro-Phe-Phe-NHNH2 (SEQ ID NO: 31) provided slow relief of pain, i.e. within about 10 minutes. […] Analgesic efficacy was judged by the subject to be 0 to 1+.

thermal burn of finger = assay: Example 56: analgesic effect on finger pain caused by thermal burn, topical; type: in vivo, human; settings: 1% (w/v) in WEP442, topical
Excerpt: A subject, suffered a thermal burn of their right fourth finger from touching a hot kitchen plate. […] Six days later, the burned site appeared normal.

sinus headaches = assay: Example 55: analgesic effect on headache due to sinusitis, topical; type: in vivo, human; settings: 1% (w/v) in WEP442, topical
Excerpt: A subject, suffered from chronic recurrent “sinus headaches.” At the time of one such headache, they topically applied to the entire forehead and, with their eyes closed, to the sites overlying the frontal and maxillary sinuses a composition containing 1% (w/v) of N-Ac-Tyr-Pro-Phe-Phe-NHNH2 (SEQ ID NO: 31) in WEP442.

[5] = tested on: extruded intervertebral cervical disc, pain and paresthesia; assay: Example 40: painful extruded intervertebral cervical disc, topical; type: in vivo, human
Excerpt: Previous therapy undergone by the subject included epidural injections of corticosteroids.

mu receptors = mu receptors (Mus musculus, UniProt P42866); settings: mouse brain; cited from earlier work
Sequence of mu receptors (P42866 whole entry): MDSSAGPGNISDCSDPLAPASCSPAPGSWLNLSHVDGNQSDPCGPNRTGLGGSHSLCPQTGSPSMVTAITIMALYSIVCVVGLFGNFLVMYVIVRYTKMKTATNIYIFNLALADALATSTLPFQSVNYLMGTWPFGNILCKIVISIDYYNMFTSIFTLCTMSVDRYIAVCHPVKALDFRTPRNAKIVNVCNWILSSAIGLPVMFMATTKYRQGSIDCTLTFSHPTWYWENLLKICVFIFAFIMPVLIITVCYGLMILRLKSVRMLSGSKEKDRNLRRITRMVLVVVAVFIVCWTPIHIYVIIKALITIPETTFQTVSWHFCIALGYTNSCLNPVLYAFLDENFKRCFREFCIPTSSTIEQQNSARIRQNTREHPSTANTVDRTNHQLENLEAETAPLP

[6] = tested on: rat rostral ventrolateral medulla neurons; settings: in vitro; cited from earlier work
adjuvant arthritis = settings: intraperitoneal injection; cited from earlier work
[7] = tested on: extruded intervertebral cervical disc, pain and paresthesia; assay: Example 40: painful extruded intervertebral cervical disc, subcutaneous injection; type: in vivo, human
Excerpt: Previous therapy undergone by the subject included epidural injections of corticosteroids. Within the past several months, the pain had intensified, along with a substantial degree of paresthesia and numbness of the fingers of both hands. […] Relief of pain and paresthesia lasted for 1-2 days. Thereafter, the pain and paresthesia returned.
About 1 week later, pain and paresthesia were negligible, but returned within 2-3 weeks. Such injections were repeated 3 times at approximately monthly intervals with the same beneficial results. However, pain and paresthesia were not cured, and recurring within 2-3 weeks.

[8] = tested on: pain caused by needling or pinching; assay: Example 91: experimentally induced skin pain, intradermal and subcutaneous injection; type: in vivo, human; settings: 0.1% sterile aqueous solution pH 6.2, intradermally 0.1 ml and subcutaneously 0.2 ml
[9] = rats injected at 5-10 μg; cited from earlier work
[10] = tested on: sore site on the left lower gum; assay: Example 38: analgesic effect on gum pain due to pressure from denture; type: in vivo, human
Protocol: […]. […] The dentures were removed and re-inserted 15 hours later. Within about 1 hour, soreness of the same area began to return and application of the above solution composition was repeated in the same way as the day before. All soreness again was alleviated within 5-10 seconds. The relief lasted again for about 7 hours.

[11] = tested on: arthritic pain of wrists and fingers (psoriasis); assay: Example 61: comparative analgesic efficacy in psoriatic arthritis of wrists and fingers, topical; type: in vivo, human; settings: 1% (w/v) in WEP442, topical
Excerpt: A subject with severe generalized psoriasis compared the topical efficacy of solution compositions of nine (9) tetrapeptide derivatives on arthritic pain of their wrists and fingers. All of the solution compositions contained 1% (w/v) of tetrapeptide derivative in WEP442.

[12] = rats injected with 18 pmol; cited from earlier work
[13] = 0.5% (w/v) in WEP442, gauze under plastic film

In the case of “N-Ac-Tyr-Pro-Phe-Phe-NHCH3 (Ac-YPFF-NHMe; SMILES CNC(=O)[C@H](Cc1ccccc1)NC(=O)[C@H](Cc1ccccc1)NC(=O)[C@@H]1CCCN1C(=O)[C@H](Cc1ccc(O)cc1)NC(C)=O)”, the recurrence (lower back (lumbar) pain; 0/8% (w/v) in WEP442, topical) is reported as “did not return”, the “time to pain relief” value (lower back (lumbar) pain; 0/8% (w/v) in WEP442, topical) is reported as ≤ 5 min and the pain relief (lower back (lumbar) pain; (w/v) in WEP442, topical) is reported as “complete resolution of all pain in the lower back”. The “duration of pain relief” value [1] was “about 17 hours”, the pain relief [1] was “completely relieved all pain” and the “time to pain relief” value [1] was 5 to 7 min. The “duration of pain relief” value [2] was “about 4 hours”, the pain relief [2] was “Complete relief of pain” and the “time to pain relief” value [2] was ≤ 2 min. For the same substance, the pain relief (post-sunburn pain; 0.8% (w/v) in WEP442, several applications over the next 24 hours) was “complete relief of pain”, the duration of relief (post-sunburn pain; 0.8% (w/v) in WEP442, topical) was 4 h and the pain relief (post-sunburn pain; 0.8% (w/v) in WEP442, topical) was “almost immediate relief of the painful discomfort”. The “duration of pain relief” value [3] was “about 7 hours”, the pain relief [3] was “completely relieved” and the “time to pain relief” value [3] was 3 to 4 min.

In the case of “N-Ac-Tyr-Pro-Phe-Phe-NHNH2 (Ac-YPFF-NHNH2; SMILES CC(=O)N[C@@H](Cc1ccc(O)cc1)C(=O)N1CCC[C@H]1C(=O)N[C@@H](Cc1ccccc1)C(=O)N[C@@H](Cc1ccccc1)C(=O)NN)”, the pain relief (migraine) is reported as “complete relief of pain”, the pain relief (hangover headache) is reported as “the headache ceased” and the “time to pain relief” value (hangover headache) is reported as 1 to 2 min. For the same substance, the pain relief [4] was “Almost complete relief of pain”, the “time to pain relief” value [4] was ≤ 10 min and the “blister at burned site” value (thermal burn of finger) was “did not developed a blister”. For the same substance, the pain relief (thermal burn of finger) was “completely relieved the pain almost instantly”, the pain relief (sinus headaches) was “headache completely subsided” and the “time to pain relief” value (sinus headaches) was ≤ 10 min.

With Tyr-Pro-Phe-Phe-NH2 (YPFF-NH2) the “duration of relief of pain and paresthesia” value [5, 13] was 1 to 2 days, the “time to relief of symptoms” value [5, 13] was 8 h and the relief of symptoms ([5]; 0.5% (w/v) in WEP442, saturated gauze under plastic film over cervical vertebra 7) was “complete relief of symptoms”. For the same substance, the “affinity for mu receptors” value (mu receptors) was “very high affinity”, the “spontaneous discharge of the medullary neurons” value [6] was “significantly inhibited” and the “effect on edema in rat paw assay” value (adjuvant arthritis) was “did not have any effect that significantly differed from the effect of the control group”. For the same substance, the pain and paresthesia ([7]; 3 mg/ml sterile aqueous solution, subcutaneous, next day) was “diminished substantially”, the “time to return of pain and paresthesia” value ([7]; 3 mg/ml subcutaneous) was 2-3 weeks and the pain and paresthesia ([7]; 3 mg/ml subcutaneous, repeated after 24 hours, about 1 week later) was “negligible”. For the same substance, the “effect on pain caused by needling or pinching of injected sites” value [8] was “did not prevent pain”, the analgesic effects [9] was “exhibited analgesic effects” and the duration of relief ([10]; 1% (w/v) in WEP442) was “about 7 hours”. For the same substance, the time to relief ([10]; 1% (w/v) in WEP442) was 5 to 10 s and the relief of soreness ([10]; 1% (w/v) in WEP442, applied to the sore gum area) was “all soreness was gone”.

With “N-Ac-Tyr-Pro-Phe-Phe-OEt (Ac-YPFF-OEt; SMILES CCOC(=O)[C@H](Cc1ccccc1)NC(=O)[C@H](Cc1ccccc1)NC(=O)[C@@H]1CCCN1C(=O)[C@H](Cc1ccc(O)cc1)NC(C)=O)” the “efficacy by clinical evaluation” value [11] was 0.

For “Tyr-Pro-Trp-Phe-NH2 [reference compound]”, the “affinity for mu receptors” value (mu receptors) is listed as “very high affinity”, the “spontaneous discharge of the medullary neurons” value [6] is listed as “significantly inhibited” and the “desensitization of the motor response” value [12] is listed as “did not induce rapid desensitization of the motor response”.
